Source: patent publication US4496580A, “Oxothienobenzoxepins” (Hoechst-Roussel Pharmaceuticals Inc., priority 1981, dated 1985)

Key:
Format in all cases: in vivo
[1] = tested on: 2-phenyl-1,4-benzoquinone-induced writhing; assay: 2-phenyl-1,4-benzoquinone-induced writhing test in mice (PQW); conditions: for ED50: Mus musculus, PQW, mice, analgesic
Text: (The phenylquinone-induced writhing test is hereinafter referred to as PQW).

[2] = ulcerogenic activity test (GI); conditions: for TD50: in vivo
Text: (The ulcerogenic ativity test is hereafter referred to as GI).

[3] = tested on: carrageenan-induced rat paw edema; assay: carrageenan-induced rat paw edema antiinflammatory assay (CPE); conditions: for ED50: CPE, rat, antiinflammatory
Text: (The carrageenan-induced rat paw edema test is hereinafter referred to as CPE).

Compound | ED50 [1] | TD50 [2] | ED50 [3] | activity in the PQW test ([1]; result in words) | incidence of ulcers / ulcerogenic activity ([2]; result in words, test animals, very high dosage levels) | activity in the CPE test ([3]; result in words)
O=C(O)Cc1ccc2c(c1)C(=O)c1sccc1CO2 [Compound 1, reference compound] | 4.5 mg/kg | 33.7 mg/kg | 3.4 mg/kg | – | – | –
CC(C)OC(=O)Cc1ccc2c(c1)C(=O)c1sccc1CO2 [Compound 2, reference compound] | 13.7 mg/kg | 21.6 mg/kg | 1.6 mg/kg | – | – | –
O=C1c2cc(CCCCO)ccc2OCc2ccsc21 [Compound 3, 4-(4,10-Dihydro-10-oxothieno[3,2-c][1]benzoxepin-8-yl)butanol] | 7.4 mg/kg | > 400 mg/kg | 8.6 mg/kg | exhibit activity | very low incidence of ulcers | exhibit activity
